Patent US20070128217A1 (priority 2003, published 2007)

Columns and labels:
[1] = system: recombinant human anti-SARS-CoV antibody 03-018; format: binding; design: Binding of antibody 03-018 to linear peptides of the N protein of SARS-CoV Urbani / Binding of antibody 03-018 to looped/cyclic peptides of the N protein of SARS-CoV Urbani: unit not given here
[2] = system: control sera (pooled serum of ten healthy LUMC hospital workers; commercial negative donor pooled serum from the Dutch bloodbank); format: binding, human; design: Binding of Control serum LUMC to linear peptides / Binding of Control serum Blood-bank to linear peptides / Binding of Control serum LUMC to looped peptides / Binding of Control Serum Blood-Bank to Looped peptides / Binding of Control serum LUMC to linear peptides of the protein M of SARS-CoV Urbani / Binding of Control serum Blood-bank to linear peptides of the protein M of SARS-CoV Urbani / Binding of Control serum LUMC to looped peptides of the protein M of SARS-CoV Urbani / Binding of Control Serum Blood-Bank to Looped peptides of the protein M of SARS-CoV Urbani: unit not given here
[3] = system: antibodies in sera from SARS patients (sera 1a, 1b, 2, 6, 37, 62, London, SARS-yellow, SARS-green); format: binding, human; design: Binding of serum 6 to linear peptides of protein X1 of SARS-CoV Urbani / Binding of serum 37 to linear peptides of protein X1 of SARS-CoV Urbani / Binding of serum 6 to looped/cyclic peptide (PEPSCAN-ELISA) / Binding of serum 37 to looped/cyclic peptide (PEPSCAN-ELISA) / Binding of serum 37 to looped/cyclic peptides of protein X1 of SARS-CoV Urbani / Binding of serum 6 to linear peptides of protein X2 / Binding of serum 37 to linear peptides of protein X2 / Binding of serum 37 to looped/cyclic peptides of protein X2 of SARS-CoV Urbani / Binding of serum 6 to linear peptides of protein M of SARS-CoV Urbani / Binding of serum 37 to linear peptides of protein M of SARS-CoV Urbani / Binding of serum 6 to looped/cyclic peptides of protein M of SARS-CoV Urbani / Binding of serum 37 to looped/cyclic peptides of protein M of SARS-CoV Urbani / Binding of serum 6 to linear peptides of protein X3 of SARS-CoV Urbani / Binding of serum 37 to linear peptides of protein X3 of SARS-CoV Urbani / Binding of serum 37 to looped/cyclic peptides of protein X3 of SARS-CoV Urbani / Binding of serum 6 to linear peptides of protein X4 of SARS-CoV Urbani / Binding of serum 37 to linear peptides of protein X4 of SARS-CoV Urbani / Binding of serum 37 to looped/cyclic peptides of protein X4 of SARS-CoV Urbani / Binding of serum 6 to linear peptides of protein X5 of SARS-CoV Urbani / Binding of serum 37 to linear peptides of protein X5 of SARS-CoV Urbani / Binding of serum 37 to looped/cyclic peptides of protein X5 of SARS-CoV Urbani / Binding of serum 6 to linear peptides of protein N of SARS-CoV Urbani / Binding of serum 37 to linear peptides of protein N of SARS-CoV Urbani / Binding of serum 6 to linear peptide (PEPSCAN-ELISA) / Binding of serum 1a to looped/cyclic peptides of protein N of SARS-CoV Urbani / Binding of serum 1b to looped/cyclic peptides of protein N of SARS-CoV Urbani / Binding of serum 2 to looped/cyclic peptides of protein N of SARS-CoV Urbani / Binding of serum 6 to looped/cyclic peptides of protein N of SARS-CoV Urbani / Binding of serum 37 to looped/cyclic peptides of protein N of SARS-CoV Urbani / Binding of serum 62 to looped/cyclic peptides of protein N of SARS-CoV Urbani / Binding of serum London to looped/cyclic peptides of protein N of SARS-CoV Urbani / Binding of serum SARS-green to looped/cyclic peptides of protein N of SARS-CoV Urbani: unit not given here
[4] = system: rabbit serum obtained by immunizing a rabbit with the SARS-CoV strain Frankfurt 1; format: binding; design: Binding of a rabbit serum to linear peptides / Binding of a rabbit serum to looped peptides / Rabbit serum linear peptides / Rabbit serum looped peptides / Binding of a rabbit serum to linear peptides of protein N of SARS-CoV Urbani (Rabbit serum linear peptides) / Binding of a rabbit serum to looped/cyclic peptides of protein N of SARS-CoV Urbani (Rabbit serum looped peptides): unit not given here

Sequence: GPTDSTDNNQNGGRN
- Binding of antibody 03-018 to linear peptides of the N protein of SARS-CoV Urbani [1]: 0.2
- Binding of antibody 03-018 to looped/cyclic peptides of the N protein of SARS-CoV Urbani [1]: 0.2
- Binding of Control Serum Blood-Bank to Looped peptides [2]: 0.6
- Binding of Control serum Blood-bank to linear peptides [2]: 0.8
- Binding of Control serum LUMC to linear peptides [2]: 0.7
- Binding of Control serum LUMC to looped peptides [2]: 0.5
- Binding of serum 1a to linear peptides of protein N of SARS-CoV Urbani [3]: 0.3
- Binding of serum 1a to looped/cyclic peptides of protein N of SARS-CoV Urbani [3]: 0.4
- Binding of serum 1b to linear peptides of protein N of SARS-CoV Urbani [3]: 0.2
- Binding of serum 1b to looped/cyclic peptides of protein N of SARS-CoV Urbani [3]: 0.4
- Binding of serum 2 to linear peptides of protein N of SARS-CoV Urbani [3]: 0.4
- Binding of serum 2 to looped/cyclic peptides of protein N of SARS-CoV Urbani [3]: 0.6
- Binding of serum 6 to linear peptides of protein N of SARS-CoV Urbani [3]: 0.2
- Binding of serum 6 to looped/cyclic peptides of protein N of SARS-CoV Urbani [3]: 0.3
- Binding of serum 37 to linear peptides of protein N of SARS-CoV Urbani [3]: 0.8
- Binding of serum 37 to looped/cyclic peptides of protein N of SARS-CoV Urbani [3]: 0.9
- Binding of serum 62 to linear peptides of protein N of SARS-CoV Urbani [3]: 0.6
- Binding of serum 62 to looped/cyclic peptides of protein N of SARS-CoV Urbani [3]: 0.6
- Binding of serum London to linear peptides of protein N of SARS-CoV Urbani [3]: 0.6
- Binding of serum London to looped/cyclic peptides of protein N of SARS-CoV Urbani [3]: 0.5
- Binding of serum SARS-green to linear peptides of protein N of SARS-CoV Urbani [3]: 0.6
- Binding of serum SARS-green to looped/cyclic peptides of protein N of SARS-CoV Urbani [3]: 1.4
- Binding of serum SARS-yellow to linear peptides of protein N of SARS-CoV Urbani [3]: 0.6
- Binding of serum SARS-yellow to looped/cyclic peptides of protein N of SARS-CoV Urbani [3]: 0.4
- Binding of a rabbit serum to linear peptides of protein N of SARS-CoV Urbani (Rabbit serum linear peptides) [4]: 0.1
- Binding of a rabbit serum to looped/cyclic peptides of protein N of SARS-CoV Urbani (Rabbit serum looped peptides) [4]: 0.4

Sequence: GQGVPINTNSGPDDQ
- Binding of antibody 03-018 to linear peptides of the N protein of SARS-CoV Urbani [1]: 0.1
- Binding of antibody 03-018 to looped/cyclic peptides of the N protein of SARS-CoV Urbani [1]: 0.2
- Binding of Control Serum Blood-Bank to Looped peptides [2]: 0.5
- Binding of Control serum Blood-bank to linear peptides [2]: 0.5
- Binding of Control serum LUMC to linear peptides [2]: 0.5
- Binding of Control serum LUMC to looped peptides [2]: 0.3
- Binding of serum 1a to linear peptides of protein N of SARS-CoV Urbani [3]: 0.3
- Binding of serum 1a to looped/cyclic peptides of protein N of SARS-CoV Urbani [3]: 0.2
- Binding of serum 1b to linear peptides of protein N of SARS-CoV Urbani [3]: 0.1
- Binding of serum 1b to looped/cyclic peptides of protein N of SARS-CoV Urbani [3]: 0.1
- Binding of serum 2 to linear peptides of protein N of SARS-CoV Urbani [3]: 0.2
- Binding of serum 2 to looped/cyclic peptides of protein N of SARS-CoV Urbani [3]: 0.3
- Binding of serum 6 to linear peptides of protein N of SARS-CoV Urbani [3]: 0.2
- Binding of serum 6 to looped/cyclic peptides of protein N of SARS-CoV Urbani [3]: 0.1
- Binding of serum 37 to linear peptides of protein N of SARS-CoV Urbani [3]: 0.8
- Binding of serum 37 to looped/cyclic peptides of protein N of SARS-CoV Urbani [3]: 0.4
- Binding of serum 62 to linear peptides of protein N of SARS-CoV Urbani [3]: 0.6
- Binding of serum 62 to looped/cyclic peptides of protein N of SARS-CoV Urbani [3]: 0.1
- Binding of serum London to linear peptides of protein N of SARS-CoV Urbani [3]: 0.6
- Binding of serum London to looped/cyclic peptides of protein N of SARS-CoV Urbani [3]: 0.3
- Binding of serum SARS-green to linear peptides of protein N of SARS-CoV Urbani [3]: 0.5
- Binding of serum SARS-green to looped/cyclic peptides of protein N of SARS-CoV Urbani [3]: 0.1
- Binding of serum SARS-yellow to linear peptides of protein N of SARS-CoV Urbani [3]: 0.6
- Binding of serum SARS-yellow to looped/cyclic peptides of protein N of SARS-CoV Urbani [3]: 0.1
- Binding of a rabbit serum to linear peptides of protein N of SARS-CoV Urbani (Rabbit serum linear peptides) [4]: 0.1
- Binding of a rabbit serum to looped/cyclic peptides of protein N of SARS-CoV Urbani (Rabbit serum looped peptides) [4]: 0.0

Sequence: GQQQQGQTVTKKSAA
- Binding of antibody 03-018 to linear peptides of the N protein of SARS-CoV Urbani [1]: 0.1
- Binding of antibody 03-018 to looped/cyclic peptides of the N protein of SARS-CoV Urbani [1]: 0.2
- Binding of Control Serum Blood-Bank to Looped peptides [2]: 0.5
- Binding of Control serum Blood-bank to linear peptides [2]: 0.9
- Binding of Control serum LUMC to linear peptides [2]: 0.9
- Binding of Control serum LUMC to looped peptides [2]: 0.5
- Binding of serum 1a to linear peptide (PEPSCAN-ELISA) [3]: 0.3
- Binding of serum 1a to looped/cyclic peptides of protein N of SARS-CoV Urbani [3]: 0.2
- Binding of serum 1b to linear peptide (PEPSCAN-ELISA) [3]: 0.1
- Binding of serum 1b to looped/cyclic peptides of protein N of SARS-CoV Urbani [3]: 0.1
- Binding of serum 2 to linear peptide (PEPSCAN-ELISA) [3]: 0.3
- Binding of serum 2 to looped/cyclic peptides of protein N of SARS-CoV Urbani [3]: 0.3
- Binding of serum 6 to linear peptide (PEPSCAN-ELISA) [3]: 0.3
- Binding of serum 6 to looped/cyclic peptides of protein N of SARS-CoV Urbani [3]: 0.1
- Binding of serum 37 to linear peptide (PEPSCAN-ELISA) [3]: 0.8
- Binding of serum 37 to looped/cyclic peptides of protein N of SARS-CoV Urbani [3]: 0.4
- Binding of serum 62 to linear peptide (PEPSCAN-ELISA) [3]: 0.8
- Binding of serum 62 to looped/cyclic peptides of protein N of SARS-CoV Urbani [3]: 0.4
- Binding of serum London to linear peptide (PEPSCAN-ELISA) [3]: 0.5
- Binding of serum London to looped/cyclic peptides of protein N of SARS-CoV Urbani [3]: 0.3
- Binding of serum SARS-green to linear peptide (PEPSCAN-ELISA) [3]: 0.1
- Binding of serum SARS-green to looped/cyclic peptides of protein N of SARS-CoV Urbani [3]: 0.1
- Binding of serum SARS-yellow to linear peptide (PEPSCAN-ELISA) [3]: 0.5
- Binding of serum SARS-yellow to looped/cyclic peptides of protein N of SARS-CoV Urbani [3]: 0.1
- Binding of a rabbit serum to linear peptides of protein N of SARS-CoV Urbani (Rabbit serum linear peptides) [4]: 0.2
- Binding of a rabbit serum to looped/cyclic peptides of protein N of SARS-CoV Urbani (Rabbit serum looped peptides) [4]: 0.1

Sequence: GQTVTKKSAAEASKK
- Binding of antibody 03-018 to linear peptides of the N protein of SARS-CoV Urbani [1]: 0.1
- Binding of antibody 03-018 to looped/cyclic peptides of the N protein of SARS-CoV Urbani [1]: 0.2
- Binding of Control Serum Blood-Bank to Looped peptides [2]: 0.4
- Binding of Control serum Blood-bank to linear peptides [2]: 0.7
- Binding of Control serum LUMC to linear peptides [2]: 0.7
- Binding of Control serum LUMC to looped peptides [2]: 0.3
- Binding of serum 1a to looped/cyclic peptides of protein N of SARS-CoV Urbani [3]: 0.2
- Binding of serum 1b to looped/cyclic peptides of protein N of SARS-CoV Urbani [3]: 0.1
- Binding of serum 2 to looped/cyclic peptides of protein N of SARS-CoV Urbani [3]: 0.2
- Binding of serum 6 to looped/cyclic peptides of protein N of SARS-CoV Urbani [3]: 0.1
- Binding of serum 37 to looped/cyclic peptides of protein N of SARS-CoV Urbani [3]: 0.4
- Binding of serum 62 to looped/cyclic peptides of protein N of SARS-CoV Urbani [3]: 0.2
- Binding of serum London to looped/cyclic peptides of protein N of SARS-CoV Urbani [3]: 0.3
- Binding of serum SARS-green to looped/cyclic peptides of protein N of SARS-CoV Urbani [3]: 0.0
- Binding of serum SARS-yellow to looped/cyclic peptides of protein N of SARS-CoV Urbani [3]: 0.2
- Recognition of the peptide by sera of SARS-CoV infected individuals, and form (linear, looped/cyclic) in which it is recognized [3]: recognized in linear form
- Binding of a rabbit serum to linear peptides of protein N of SARS-CoV Urbani (Rabbit serum linear peptides) [4]: 0.2
- Binding of a rabbit serum to looped/cyclic peptides of protein N of SARS-CoV Urbani (Rabbit serum looped peptides) [4]: 0.2
